Data on eleven compounds can be found in patent publication US20060024691A1, “Novel pathways in the etiology of cancer” (Buck Institute for Age Research, priority 2004, published 2006).

Entries after “also recorded” stand apart in the source; their conditions may differ. Where two headings read alike, the source gives them in different places. Peptide text beside a SMILES is read from it. * marks the point of attachment. Cbz = O=C(OCc1ccccc1)*

The subject of one series is MCF-7/HER2 cells. As to conditions: 5-7 days, concentrations approaching 1000 nM; cited from earlier work.
Another series has as its system BT474 cells. Conditions: 5-7 days, concentrations approaching 1000 nM; cited from earlier work.
A further series relates to MCF-7 cells. Conditions: 5-7 days, concentrations approaching 1000 nM; cited from earlier work.
For another series, the system named is ERK1/ERK2. Kind of series: MAPK activation: ERK1/ERK2 phosphorylation, Western blot. As to conditions: MCF7 cells; for effect on K3 induced phospho-ERK1/2 formation (MAPK activation): co-treatment with K3. The format is cell-based, human. On the procedure: (§1) Human breast cancer cell lines MCF7 and T47D were obtained from the American Type Culture Collection (ATCC). MCF7 cells were maintained in Dulbecco's Modification of Eagle's Medium (Cellgro) supplemented with 10% fetal bovine serum (Cellgro), 1% penicillin/streptomycin (Cellgro) and 10 μg/ml insulin (Sigma). T47D cells were maintained in RPMI (Cellgro) supplemented with 10% fetal bovine serum, 1% penicillin/streptomycin and 10 μg/ml insulin. Treatment conditions for both cell lines involved plating ˜1×10^6 cells in normal media onto 10 cm dishes, attachment and growth for 24 hours followed by a change to estrogen-free culture conditions (phenol red-free DME H-16 supplemented with 10% charcoal stripped serum, 1% penicillin/streptomycin and 10 μg/ml insulin) for an additional 24 hours. Cells were then treated as indicated for 30 minutes before extract preparation. Indicated conditions involved 30 minute pretreatments.
For preparation of high-salt nuclear extracts (nucleoplasm), isolated nuclei were resuspended for 20 minutes in ice cold extraction buffer (0.4 M NaCl, 25 mM Tris pH 7.5, 1 mM DTT, 20% glycerol, 10 mM NaFl and min-complete protease inhibitors (Roche)) followed by a 4° C. centrifugation at 16,000×g for 15 minutes.
Membranes were then blocked for 30 minutes in blocking buffer (150 mM NaCl, 20 mM Tris pH 7.5, 0.3% Tween-20 and 4% Nonfat dry milk powerby weight).
(In general: In western blotting, separated proteins are transferred to a membrane and probed.)

The next series has as its system NFκB. Kind of series: NFκB DNA-binding by EMSA, nuclear extracts of menadione treated MCF-7 cells. The format is cell-based, human. As to conditions: 30 min pretreatment: MG-132 25 μM, PS-341 5 μM, PDTC 100 μM, PA 50 μM; then menadione 100 μM 30 min. The method, then: (§2) PS-341 was kindly provided by Millennium Pharmaceuticals Inc. (Cambridge, Mass.). […] For assessment of combined treatment effects on cell viability, 2×10^4 cells (MCF-7, MCF-7/HER2, BT474) grown in 24-well plates were first treated with tamoxifen (dissolved in ethanol) and/or parthenolide (dissolved in DMSO); for the combination treatment pathenolide was added 4 h before addition of tamoxifen. Cell viability was measured 18 h after tamoxifen treatment using the sulforhodamine B (SRB) assay (Skehan, et al. 1990). Briefly, cells fixed with trichloroacetic acid were stained for 30 min with 0.4% SRB dissolved in 1% acetic acid. Unbound dye was removed by four washes with 1% acetic acid, and protein-bound dye was extracted with 10 mM unbuffered Tris base [tris(hydroxymethyl)aminomethane] for determination of optical density at 564 nm.
(§3) Fractionation of control and treated cells into cytoplasmic and nuclear extracts was performed as previously described (Dignam et al., 1983), with minor modification. Cells harvested on ice were washed twice with cold PBS, scraped and resuspended in 1.0 ml hypotonic buffer (20 mM HEPES, pH 7.0; 10 mM KCl; 1 mM MgCl2; 0.1% Triton X-100; 20% glycerol; 0.5 mM DTT) containing a cocktail of protease inhibitors (Mini CompleteTM protease inhibitors, Roche Diagnostics, Mannheim, Germany). The harvested cells were Dounce homogenized on ice, the mixture centrifuged at 3,000 rpm at 4° C. (5 min), and the cytoplasmic fraction separated from the nuclear pellet which was resuspended in elution buffer (20 mM HEPES, pH 7.0; 10 mM KCl; 1 mM MgCl2; 0.42 M NaCl; 0.1% Triton X-100; 20% glycerol; 0.5 mM DTT), supplemented with protease inhibitors. After 20 min at 4° C. the buffered mixture was centrifuged at 14,000 rpm at 4° C. (10 min) to obtain solubilized nuclear extracts which were then stored in aliquots at −80° C. after protein determination (Bradford; BioRad, Hercules, Calif.) and for subsequent NFkB DNA-binding assays.
NFκB DNA-binding activity was measured by two different techniques. Analogous to previous tumor extract scoring of Sp1 DNA-binding protein (Quong et al., 2002), total specific NFκB DNA-binding protein was determined by electrophoretic morbility shift assay (EMSA) as follows. A duplexed oligonucleotide probe (Promega, Madison, Wis.) with sense strand containing the decameric κB consensus binding sequence (underlined) 5′-[…]-3′(SEQ ID NO:4) was end-labeled with [γ-P32]ATP (PerkinElmer, Boston, Mass.) using T4 polynucleotide kinase (Promega, Madison, Wis.) and purified with G-50 Sephadex Bio-Spin columns (BioRad, Hercules, Calif.). […]
In general terms: In EMSA bound probe runs differently from free probe, usually more slowly.

For series [1], the system named is p50 and p65 NFκB subunits. Kind of series: Immunoblot of nuclear p50 and p65 NFκB subunits in MCF-7 cells. The format is cell-based, human. As to conditions: MCF-7; MG-132 25 μM, PS-341 5 μM, PDTC 100 μM, PA 50 μM. The method, then:
as §2, §3
Antibodies against p50 NFκB, p65 NFκB, IκB, and β-actin proteins were commercially obtained (Santa Cruz Biotechnology, Santa Cruz, Calif.; and Abcam Inc., Cambridge, Mass.). […]; 4% SDS; 20% glycerol; and 10% 2-mercaptoethanol) and resolved by electrophoresis in 4-12% Bis-Tris SDS gradient gels in morpholinepropane sulfonic acid (MOPS) buffer. Separated proteins were transferred onto polyvinylidene difluoride membranes (Millipore Co., Billerica, Mass.), blocked with 5% non-fat milk in PBS containing 0.1% Tween-20, and membranes immunoblotted with the indicated antibodies in blocking solution. […]

Series [2] deals with ERα Ser-167 (67 kD ERα and 52 kD ERα variant). The format is cell-based, human. Conditions: for block of K3-induced p-Ser-167 ERα formation: MCF7 cells, co-treatment with K3. On the procedure:
as §1
(§4) Following aspiration of the media and one ice cold PBS wash, cells growing on 10 cm dishes were harvested using a cell scraper and 0.7 ml of ice cold cell lyses buffer ([…], 1.5 mM MgCl2, […] KCl, 1 mM DTT, […] NaFl, 5% glycerol, 0.45% NP40 (Igepal, Sigma) and mincomplete protease inhibitors (Roche)). […] For preparation of high-salt nuclear extracts (nucleoplasm), isolated nuclei were resuspended for 20 minutes in ice cold extraction buffer (0.4 M NaCl, 25 mM Tris pH 7.5, 1 mM DTT, 20% glycerol, 10 mM NaFl and min-complete protease inhibitors (Roche)) followed by a 4° C. centrifugation at 16,000×g for 15 minutes.
(§5) Equal amounts of protein from the various extracts were mixed with 2× SDS sample buffer (125 mM Tris pH6.8, 20% glycerol, 2% SDS, 0.28 M 2-mercaptoethanol and0.5% Bromphenol Blue), heated for 5 minutes at 90° C. and electrophoresed on NuPAGE 4-12% Bis-Tris gels (Invitrogen) using NuPAGE MOPS SDS running buffer (Invitrogen) and full range Rainbow recombinant protein molecular weight markers (Amersham Pharmacia). […] Membranes were then blocked for 30 minutes in blocking buffer (150 mM NaCl, 20 mM Tris pH 7.5, 0.3% Tween-20 and 4% Nonfat dry milk powerby weight).

In series [3] the test system is ERα Ser-118 (67 kD ERα and 52 kD ERα variant). The format is cell-based, human. Conditions: for Ser-118 phosphorylation of ER induced by treatment: MCF-7/T47D cells, charcoal-stripped media, 30 min, menadione 100 μM, estradiol 10 nM, other quinones at equitoxic doses. On the procedure: as §1, §4, §5
A further series concerns NF-κB p65. Kind of series: NF-κB p65 DNA-binding (TransAM assay). As to conditions: ER-positive cells, 10 μM, 30 min. In kind it is cell-based, human. The method, then:
(§6) Quantitative p50 and p65 NFκB DNA-binding were also determined using ELISA based Trans-AMTM assays in accordance with the manufacturer's instructions (ActiveMotif; Carlsbad, Calif.). In these commercial kits, a duplexed NFκB oligonucleotide containing the same κB consensus sequence described for the EMSA assay above is attached to the surface of 96-well plates. Activated NFκB in tumor or nuclear extracts that is first bound to the attached oligonucleotide is specifically and quantitatively detected by subsequent incubation with p50 or p65 specific antibody followed by an enzyme (HRP)-linked secondary for colorimetric (OD450 nm absorbance) scoring. Standard curves to establish the linear assay range for Trans-AMTM determinations of p50 and p65 NFκB DNA-binding activities were performed using graded amounts of control (IL-1 treated) HeLa cell nuclear extracts (0.625 to 10 μg/well) and for comparison with a panel of nuclear extracts from six human breast cancer cell lines (MCF-7, T47D, BT474, MCF-7/HER2, SkBr3, MDA-231).

A further series has as its system NF-κB p50. Kind of series: NF-κB p50 DNA-binding (TransAM assay). The format is cell-based, human. Conditions: ER-positive cells, 10 μM, 30 min. The method, then: as §6

As to `CC/C(=C(\c1ccccc1)c1ccc(OCCN(C)C)cc1)c1ccccc1` [tamoxifen, [Z]-1-[p-dimethylaminoethoxyphenyl]-1,2-diphenyl-1 butene], the “cellular reductions (viable cell number)” value with MCF-7/HER2 cells and in the series on BT474 cells was about 25% each time. Further, the “reduction in viable cell number” value in the series with MCF-7 cells is given as about 50%.
With `N#CC(=C(/N)Sc1ccccc1N)/C(C#N)=C(\N)Sc1ccccc1N` [U0126], the “effect on K3 induced phospho-ERK1/2 formation (MAPK activation)” value in the series on ERK1/ERK2 is “only minimal activation detectable”.
On to `CC(C)C[C@H](NC(=O)[C@H](Cc1ccccc1)NC(=O)c1cnccn1)B(O)O` [PS-341], for which the “inhibition of menadione-induced NFκB DNA-binding / activation” value with NFκB is recorded as “complete inhibition; also recorded: completely inhibited”. Besides, in [1], the “nuclear p50 and p65 NFκB subunit content, inhibitor pretreatment before menadione” value is “marked reductions”.
For the compound `S=C(S)N1CCCC1` [PDTC, pyrrolidine dithiocarbamate], the “inhibition of menadione-induced NFκB DNA-binding / activation” value in the series on NFκB is “complete inhibition”. In [1], the “nuclear p50 and p65 NFκB subunit content, inhibitor pretreatment before menadione” value is on record as “marked reductions”.
For `C[S+]([O-])c1ccc(-c2nc(-c3ccncc3)c(-c3ccc(F)cc3)[nH]2)cc1` (stereo not drawn) [SB203580], the “block of K3-induced p-Ser-167 ERα formation” value in series [2] is “no affect”.
Turning to `O=C1C=CC(=O)C=C1` [p-benzoquinone], the “Ser-118 phosphorylation of ER induced by treatment” value (“Ser-118 phosphorylation” for short) in [3] is listed as “no Ser˜118 phosphorylation”.
With `C[C@]12CC[C@@H]3c4ccc(O)c(O)c4CC[C@H]3[C@@H]1CCC2=O` [4-OHE, 4-hydroxyestrone], in series [3], the “Ser-118 phosphorylation” value is “induced Ser-118 and Ser-167 phosphorylation of the 52 kD ERα nuclear variant”. Further, the “Ser-167 phosphorylation of ERα induced by treatment” value in series [2] (MCF7 nuclear extracts, 30 min) is “induced Ser-118 and Ser-167 phosphorylation of the 52 kD ERα nuclear variant”. Further, the “ERK1/ERK2 phosphorylation induced by treatment” value in the series with ERK1/ERK2 (30 minutes) is listed as “phosphorylating ERK1/2”.
As to `CC(=O)N[C@@H](CS)C(=O)O` [NAC, N-acetyl cysteine], the “block of K3-induced p-Ser-167 ERα formation” value in [2] is “blocked”; in [2] (listed as N-acetyl cysteine), “effectively block”. In addition, the “effect on K3 induced phospho-ERK1/2 formation (MAPK activation)” value with ERK1/ERK2 is “blocked; also recorded: completely block”; with ERK1/ERK2 (listed as N-acetyl cysteine), “without inhibiting MAPK activity”.
For `COC1=C(OC)C(=O)c2ccccc2C1=O` [DMNQ], the “Ser-118 phosphorylation” value in [3] is “no Ser˜118 phosphorylation”.
As for `O=c1oc2ccccc2c(O)c1Cc1c(O)c2ccccc2oc1=O` [dicumarol], in series [3] (MCF7 cells, dicumarol added concurrently with K3), the “inhibition of K3-induced p-Ser-118 ERα” value is on record as “at least 75%”. Further, the “block of K3-induced p-Ser-167 ERα formation” value in series [2] is reported as “virtually complete inhibition; also recorded: effectively block”.
With `CC(C)C[C@@H](C=O)NC(=O)[C@H](CC(C)C)NC(=O)[C@H](CC(C)C)NC(=O)OCc1ccccc1` [MG-132] (Cbz-Leu-Leu-Leu-aldehyde), the “inhibition of menadione-induced NFκB DNA-binding / activation” value in the series on NFκB is listed as “complete inhibition; also recorded: completely inhibited”. In addition, the “decrease in the DNA-binding of p65 subunit” value in the series with NF-κB p65 stood at 60%. In the series on NF-κB p50, the “decrease in the DNA-binding of p50 subunit” value is 60%. Besides, in series [1], the “nuclear p50 and p65 NFκB subunit content, inhibitor pretreatment before menadione” value is given as “marked reductions”.
